According to publication PMC9147192, “Small Molecule Arranged Thermal Proximity Coaggregation (smarTPCA)—A Novel Approach to Characterize Protein–Protein Interactions in Living Cells by Similar Isothermal Dose–Responses” (International Journal of Molecular Sciences, 2022):
Where “and” joins values, the source holds several entries; their conditions need not be identical. Equal entries are not always repeated. Where two headings read alike, the source gives them in different places.

Key:
MAPK14 = tested on: MAPK14; parameters: method as in Jafari et al., Nat. Protoc. 2014; details: MAPK14, living HL-60 cells, ref Jafari et al., Nat. Protoc. 2014, cited from earlier work
HN1L = target: T1, HN1L (Homo sapiens, UniProt Q9H910); assay: TPP-CCR in living HL-60 cells; details: for Hill slope (HN1L): living HL-60 cells, […] °C, TMT-MS
T1 sequence (Q9H910 1-190): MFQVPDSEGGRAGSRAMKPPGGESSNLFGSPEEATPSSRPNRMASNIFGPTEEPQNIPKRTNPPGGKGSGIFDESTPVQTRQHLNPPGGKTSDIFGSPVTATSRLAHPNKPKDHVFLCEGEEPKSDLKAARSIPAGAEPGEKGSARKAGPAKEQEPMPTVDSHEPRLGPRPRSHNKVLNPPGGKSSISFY

MAPK8 = MAPK8 (Homo sapiens, UniProt P45983); assay: TPP-CCR in living HL-60 cells; details: […] °C, TMT-MS
MAPKAPK2 [1] = target: T2, MAPKAPK2 (Homo sapiens, UniProt P49137); assay: TPP-TR in living HL-60 cells; assay type: cell-based; details: 20 μM, single set (no replicates)
Procedure: (§1) HL-60 cells (ATCC No. CCL-240) were expanded to about […] in 80 mL cell culture medium (RPMI-1640 supplemented with 10% (v/v) FBS, 1% (v/v) penicillin-streptomycin and 1% (v/v) L-glutamine solution) and divided into four aliquots (20 mL each, 25 million cells per flask). […] The same volume of DMSO was added to the remaining aliquot serving as the vehicle (DMSO) control. After incubation (1 h, 37 °C, 5% CO2, in cell culture CO2 incubator), the cell suspensions were transferred into 50 mL conical tubes, cell number and viability were determined, and after centrifugation (300 relative centrifugal force (rcf), 3 min, room temperature (r.t.)), the supernatants were completely removed and discarded. The cells were washed using 20 mL Dulbecco’s phosphate-buffered saline (PBS), respectively, by resuspension and centrifugation (300 rcf, 3 min, r.t.). After the complete removal of the supernatants, the cells were transferred into pre-weighed 2 mL Eppendorf tubes using 0.5 mL PBS (r.t.), respectively, for resuspending. After centrifugation (300 rcf, 3 min, r.t.) and removing as much as possible of the supernatants, the cell wet weights were determined.
(§2) The suspensions were shortly centrifuged (1 s or less) using a benchtop centrifuge that was equipped with an inset for PCR tubes to release trapped air and to achieve an even liquid level without pelleting the cells. The 100 µL cell suspensions were then temperature treated by a 7 min pre-incubation at r.t., a 3 min incubation at the following different temperatures in the PCR cycler (DNA Engine Tetrad 2, lid temperature 70 °C, gradient block 1: 36–55 °C, gradient block 2: 48–67 °C), and a 3 min post-incubation at r.t. in a metal heating block for uniform heat dissipation.
(§3) The cells were lysed by four freeze/thaw cycles consisting of thawing the samples (in a heat block set to 25 °C and shaking at 1250 rpm) accompanied by mixing them several times by inversion and then shock freezing them again in liquid nitrogen. The resulting lysates were kept cold (on ice or 4 °C) from then on. After centrifugation (20,000 rcf, 30 min, 4 °C) to pellet the cell debris together with precipitated and aggregated proteins, the supernatants were recovered and, after determining the total protein concentration (Pierce 660 nm Protein Assay, BSA as standard), the resulting cell extracts containing the fraction of soluble, non-denatured proteins were shock frozen in liquid nitrogen and stored at −80 °C.
(§4) For each sample set comprising ten temperature range samples, the same volume of the cell extracts containing the fraction of soluble, non-denatured proteins was used for further analysis. Volume calculation for 30 µg total protein was performed as described for SDS-PAGE and immunoblotting. The calculated volume was respectively transferred into 0.5 mL LoBind Eppendorf tubes and evaporated to dryness using vacuum centrifugation (SpeedVac concentrator, Eppendorf, Hamburg, Germany). The dried proteins were each reconstituted in 10 µL of SDS sample buffer (containing DTT) and incubated for 30 min at 50 °C with shaking (700 rpm). 1.111 µL 1 M iodoacetamide (IAA) was added to each sample (final 100 mM IAA), then the samples were mixed and incubated for 30 min at r.t. in the dark. Sample quality was controlled by SDS-PAGE/silver staining using 0.926 µL of each sample (2.5 µg on average for the two lowest temperature samples; 26-well 4–12% Bis-Tris polyacrylamide gels, Novex NuPAGE, Thermo Scientific; 15 min at 50 V, about 1.5 h at 200 V using the recommended MOPS running buffer).

MYLK = MYLK (Homo sapiens, UniProt Q15746); assay: TPP-TR in living HL-60 cells; assay type: cell-based; details: 20 μM, single set (no replicates)
Procedure: as §1, §2, §3, §4

MAPKAPK3 [2] = target: T3, MAPKAPK3 (Homo sapiens, UniProt Q16644); assay: TPP-TR in living HL-60 cells; assay type: cell-based; details: 20 μM, single set (no replicates)
Procedure: as §1, §2, §3, §4

MAPKAPK2 [3] = target: T2, MAPKAPK2; assay: CETSA in living HL-60 cells, immunoblot; assay type: cell-based; details: for Top: top plateau of melting curve fit
Procedure: (§5) First, we conducted CETSA experiments according to Jafari et al.. […] Subsequent SDS-PAGE and immunoblotting were performed according to optimized conditions allowing for parallel detection of MAPK14, MAPKAPK2, MAPKAPK3, and GSK-3α (Supplementary Figure S1).
as §1, §2, §3
(§6) For each sample set comprising either ten temperature range samples or ten compound concentration range samples, the same volume of the cell extracts containing the fraction of soluble, non-denatured proteins was used for further analysis. This volume was determined using the two lowest temperature samples (36.5 and 41.2 °C) per temperature range sample set so that they contained an average of 5 µg total protein (e.g., 2.78 µL for all temperature range samples of a sample set whose two lowest temperature samples contain an average of 1.8 mg/mL protein). For the compound concentration range experiments, all samples of a set were used for averaging.

GSK-3α = target: T4, GSK-3α (Homo sapiens, UniProt P49840); assay: CETSA in living HL-60 cells, immunoblot; assay type: cell-based
T4 construct: parallel detection of MAPK14, MAPKAPK2, MAPKAPK3, and GSK-3α; endogenous in cells; host or cells: HL-60 (ATCC CCL-240), living cells or cell extract
Procedure: as §5, §1, §2, §3, §6

MAPKAPK3 [4] = target: T3, MAPKAPK3; assay: CETSA in living HL-60 cells, immunoblot; assay type: cell-based
Procedure: as §5, §1, §2, §3, §6

MAPKAPK2 phosphorylation = assay: MAPKAPK2 phosphorylation-dependent electrophoretic mobility shift (PDEMS) immunoblot, living HL-60 cells; details: 20 µM inhibitor
[5] = MAPKAPK2, living cells, immunoblot
[6] = living HL-60 cells, 20 µM inhibitor, immunoblot
[7] = living HL-60 cells, 20 µM inhibitor, immunoblot, 20 µM
[8] = GSK-3α, living cells, immunoblot
[9] = living HL-60 cells, 20 µM inhibitor, immunoblot, read-out: ΔTm to DMSO (GSK-3α)
[10] = MAPKAPK3, living cells, immunoblot

T2 sequence (P49137 whole entry): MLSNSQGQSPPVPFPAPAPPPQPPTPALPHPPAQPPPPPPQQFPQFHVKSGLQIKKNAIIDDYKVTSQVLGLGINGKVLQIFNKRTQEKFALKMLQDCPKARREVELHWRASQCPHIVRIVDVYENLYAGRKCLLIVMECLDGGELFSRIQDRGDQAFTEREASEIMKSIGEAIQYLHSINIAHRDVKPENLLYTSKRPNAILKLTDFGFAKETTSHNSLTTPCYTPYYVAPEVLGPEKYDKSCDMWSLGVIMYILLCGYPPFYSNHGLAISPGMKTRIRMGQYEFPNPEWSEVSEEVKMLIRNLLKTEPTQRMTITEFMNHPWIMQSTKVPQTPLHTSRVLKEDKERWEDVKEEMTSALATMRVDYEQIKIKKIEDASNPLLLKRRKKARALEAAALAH
T4 sequence (P49840 whole entry): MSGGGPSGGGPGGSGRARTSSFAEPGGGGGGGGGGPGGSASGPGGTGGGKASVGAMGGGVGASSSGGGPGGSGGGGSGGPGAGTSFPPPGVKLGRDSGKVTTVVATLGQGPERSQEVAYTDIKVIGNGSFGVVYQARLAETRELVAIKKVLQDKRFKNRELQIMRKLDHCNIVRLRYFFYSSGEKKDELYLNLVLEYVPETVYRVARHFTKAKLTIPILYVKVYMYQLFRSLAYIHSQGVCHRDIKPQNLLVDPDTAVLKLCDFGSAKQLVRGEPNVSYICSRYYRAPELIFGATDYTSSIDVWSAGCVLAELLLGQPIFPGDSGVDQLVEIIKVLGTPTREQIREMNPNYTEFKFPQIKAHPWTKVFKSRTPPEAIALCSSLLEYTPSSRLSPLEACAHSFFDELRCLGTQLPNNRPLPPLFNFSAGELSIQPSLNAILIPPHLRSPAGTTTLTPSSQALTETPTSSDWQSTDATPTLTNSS
T3 sequence (Q16644 whole entry): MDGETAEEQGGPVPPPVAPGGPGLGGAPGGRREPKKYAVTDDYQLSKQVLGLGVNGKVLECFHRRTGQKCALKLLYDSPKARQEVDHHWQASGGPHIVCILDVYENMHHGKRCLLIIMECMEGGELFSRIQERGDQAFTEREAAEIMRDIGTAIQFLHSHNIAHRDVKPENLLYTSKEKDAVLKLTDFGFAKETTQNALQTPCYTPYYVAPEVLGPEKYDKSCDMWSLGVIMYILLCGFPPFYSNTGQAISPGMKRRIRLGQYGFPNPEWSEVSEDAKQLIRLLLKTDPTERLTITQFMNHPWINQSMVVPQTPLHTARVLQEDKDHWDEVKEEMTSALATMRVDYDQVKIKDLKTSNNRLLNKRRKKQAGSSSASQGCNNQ
Chain of MAPK8 (P45983 whole entry): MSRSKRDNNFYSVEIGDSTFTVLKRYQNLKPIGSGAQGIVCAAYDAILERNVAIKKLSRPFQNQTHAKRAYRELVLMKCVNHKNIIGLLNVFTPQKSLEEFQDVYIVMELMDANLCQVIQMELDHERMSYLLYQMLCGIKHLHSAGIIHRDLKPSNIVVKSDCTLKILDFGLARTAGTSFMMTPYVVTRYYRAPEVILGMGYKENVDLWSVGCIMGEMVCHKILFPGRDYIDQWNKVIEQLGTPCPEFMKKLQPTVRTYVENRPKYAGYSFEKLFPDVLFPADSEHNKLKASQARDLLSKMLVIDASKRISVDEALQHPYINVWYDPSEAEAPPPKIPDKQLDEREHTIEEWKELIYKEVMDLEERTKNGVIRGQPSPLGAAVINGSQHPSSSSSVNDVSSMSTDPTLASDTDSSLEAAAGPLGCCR
Chain of MYLK (Q15746 whole entry): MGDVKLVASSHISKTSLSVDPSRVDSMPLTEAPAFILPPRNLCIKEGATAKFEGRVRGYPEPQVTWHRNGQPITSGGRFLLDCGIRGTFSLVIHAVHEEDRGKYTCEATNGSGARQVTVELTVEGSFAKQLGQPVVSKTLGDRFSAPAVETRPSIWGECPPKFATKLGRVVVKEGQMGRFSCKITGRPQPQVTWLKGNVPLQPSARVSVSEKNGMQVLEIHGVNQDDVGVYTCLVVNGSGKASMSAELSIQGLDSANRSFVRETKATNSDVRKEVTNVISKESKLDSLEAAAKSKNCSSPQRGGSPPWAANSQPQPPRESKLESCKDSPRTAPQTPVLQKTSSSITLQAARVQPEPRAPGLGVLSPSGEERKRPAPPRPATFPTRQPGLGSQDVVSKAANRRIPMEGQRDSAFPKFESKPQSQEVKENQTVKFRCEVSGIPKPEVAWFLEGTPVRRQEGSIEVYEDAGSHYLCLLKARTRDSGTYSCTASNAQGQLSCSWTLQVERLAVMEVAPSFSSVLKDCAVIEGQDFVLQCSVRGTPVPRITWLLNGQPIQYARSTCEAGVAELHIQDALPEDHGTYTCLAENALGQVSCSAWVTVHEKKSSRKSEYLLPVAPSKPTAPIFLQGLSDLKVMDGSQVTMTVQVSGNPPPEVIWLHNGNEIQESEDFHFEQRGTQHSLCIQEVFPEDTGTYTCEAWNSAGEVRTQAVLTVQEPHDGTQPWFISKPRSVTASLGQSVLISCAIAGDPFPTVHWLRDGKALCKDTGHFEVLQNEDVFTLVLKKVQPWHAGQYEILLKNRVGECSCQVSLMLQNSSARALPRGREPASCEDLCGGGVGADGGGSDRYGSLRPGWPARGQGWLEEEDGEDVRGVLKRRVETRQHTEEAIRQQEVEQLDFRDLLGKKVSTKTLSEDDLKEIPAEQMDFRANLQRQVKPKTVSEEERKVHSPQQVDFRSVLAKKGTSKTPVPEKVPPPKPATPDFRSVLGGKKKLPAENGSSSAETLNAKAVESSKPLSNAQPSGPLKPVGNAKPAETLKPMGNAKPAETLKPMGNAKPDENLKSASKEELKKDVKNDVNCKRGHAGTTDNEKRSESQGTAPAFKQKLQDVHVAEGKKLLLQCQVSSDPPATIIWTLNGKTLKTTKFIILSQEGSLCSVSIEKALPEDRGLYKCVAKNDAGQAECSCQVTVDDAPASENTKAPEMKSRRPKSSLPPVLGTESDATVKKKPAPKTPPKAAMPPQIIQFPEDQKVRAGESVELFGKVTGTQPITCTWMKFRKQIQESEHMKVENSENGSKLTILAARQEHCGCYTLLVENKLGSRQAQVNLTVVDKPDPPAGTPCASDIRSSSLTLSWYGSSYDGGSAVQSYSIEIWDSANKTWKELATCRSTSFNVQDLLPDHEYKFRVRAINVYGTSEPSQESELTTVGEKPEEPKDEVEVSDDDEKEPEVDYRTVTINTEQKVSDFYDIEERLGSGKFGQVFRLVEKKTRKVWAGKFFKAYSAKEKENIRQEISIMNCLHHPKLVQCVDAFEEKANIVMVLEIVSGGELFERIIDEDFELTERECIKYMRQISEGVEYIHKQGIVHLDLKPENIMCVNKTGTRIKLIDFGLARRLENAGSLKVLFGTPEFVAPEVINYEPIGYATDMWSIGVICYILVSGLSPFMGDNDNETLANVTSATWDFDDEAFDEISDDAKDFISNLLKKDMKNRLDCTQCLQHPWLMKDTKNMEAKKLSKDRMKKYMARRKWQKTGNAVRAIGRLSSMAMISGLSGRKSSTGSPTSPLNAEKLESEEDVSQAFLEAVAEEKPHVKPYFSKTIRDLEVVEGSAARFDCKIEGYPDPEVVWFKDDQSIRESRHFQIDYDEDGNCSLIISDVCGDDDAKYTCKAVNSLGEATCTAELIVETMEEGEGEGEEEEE

SMILES | Tagg values (given as averages ± s.d.), AlphaScreen (MAPK14) | Tagg values (given as averages ± s.d.), Western blot (MAPK14) | EC50 (HN1L) [nM] | Hill slope (HN1L) (HN1L) | Hill slope (MAPK8) (MAPK8) | thermal stabilization in melting curves (MAPKAPK2) (MAPKAPK2 [1]) | thermal stabilization in melting curves (MYLK) (MYLK) | thermal stabilization in melting curves (MAPKAPK3) (MAPKAPK3 [2]) | Tm (GSK-3α; [8]) [°C] | Tm (GSK-3α) (GSK-3α; [6]) [°C] | ΔTm at 20 µM (GSK-3α; [9]) [°C] | Tm (MAPKAPK3 [4]; [10]) [°C] | Tm (MAPKAPK3) (MAPKAPK3 [4]; [6]) [°C] | MAPKAPK2 phosphorylation (band pattern, PDEMS) (MAPKAPK2 phosphorylation) | Top (MAPKAPK2 [3]; MAPKAPK2, living cells) [%] | further results
Cn1c(NC[C@@H](N)Cc2ccccc2)nc(-c2ccncc2)c(-c2ccc3ccccc3c2)c1=O [AMG-548] | 59.2 ± 0.9 °C | 60.6 ± 1.0 °C | 389 | 0.39 | 0.24 | thermal stabilizations | thermal stabilizations | thermal stabilizations | 53.26 | 53.26 | -0.71 | 54.68 | 54.68 | inhibited apparent MAPKAPK2 phosphorylation |  | Tm (MAPKAPK2 [3]; [5]): 54.39 °C; ΔTm to DMSO (MAPKAPK2 [3]; [5]): 5.18 °C; Tm (MAPKAPK2) (MAPKAPK2 [3]; [6]): 54.39 °C; ΔTm to DMSO (MAPKAPK2) (MAPKAPK2 [3]; [7]): 5.2 °C and 5.18 °C; ΔTm to DMSO (MAPKAPK3 [4]; [10]): 6.62 °C; ΔTm to DMSO (MAPKAPK3) (MAPKAPK3 [4]; [7]): 6.6 °C and 6.62 °C
Cc1cnc(Nc2ccc(F)cc2Cl)nc1-c1c[nH]c(C(=O)N[C@H](CO)c2cccc(Cl)c2)c1 [ERK 11e] | no substantial response (same as DMSO) | no substantial response (same as DMSO) | 110 | 0.20 |  |  |  |  | 54.11 | 54.11 |  |  |  | double band | 36.1 | Hill slope (HN1L; TPP-CCR, living cells, HN1L): 0.20; ΔTm at 20 µM (MAPKAPK2 [3]; HL-60, read-out: ΔTm to DMSO (MAPKAPK2)): -0.02 °C; ΔTm at 20 µM (GSK-3α; HL-60, read-out: ΔTm to DMSO (GSK-3α)): 0.14 °C; ΔTm at 20 µM (MAPKAPK3 [4]; HL-60, read-out: ΔTm to DMSO (MAPKAPK3)): 0.26 °C
C[S+]([O-])c1ccc(-c2nc(-c3ccncc3)c(-c3ccc(F)cc3)[nH]2)cc1 (centres unmarked) [SB203580] |  |  |  |  | 0.44 | thermal stabilizations | thermal stabilizations | thermal stabilizations | 54.03 | 54.03 | 0.05 | 51.56 | 51.56 | inhibited apparent MAPKAPK2 phosphorylation | 87.0 | ΔTm to DMSO (GSK-3α; [8]): 0.0529 °C
